Patent US9067894B1, “Compound, composition, and method of activating GIRK potassium channel and use of same for treating conditions of interest” (Vanderbilt University, priority 2013, dated 2015)
Where two headings read alike, the source gives them in different places.

Tests used:
[1] = In vivo pharmacokinetic study, IP in mice; details: mouse, intraperitoneal 10 mg/kg
Method: In Vivo Pharmacokinetic Study. Compound(s) were formulated in 10% Tween80 in sterile water at the concentration of 3.33 mg/mL and administered IP to male C57 BL6 mice weighing 20 to 25 g (Harlan, Indianapolis, Ind.) at the dose of 10 mg/kg. The blood (cardiac puncture) and brain were collected at 0.5, 1, 3, and 6 hr. Animals were euthanized and decapitated, and the brains were removed, thoroughly washed in cold phosphate-buffered saline, and immediately frozen on dry ice. Plasma was separated by centrifugation (4000 rcf, 4° C.) and stored at −80° C. until analysis. On the day of analysis, frozen whole-[…] brains were weighed and diluted with 1:3 (w/w) parts of 70:30 isopropanol:water. The mixture was then subjected to mechanical homogenation employing a Mini-Beadbeater™ and 1.0 mm Zirconia/Silica Beads (BioSpec Products) followed by centrifugation. The sample extraction of plasma (20 μL) or brain homogenate (20 μL) was performed by a method based on protein precipitation using three volumes of ice-cold acetonitrile containing an internal standard (50 ng/mL carbamazepine). The samples were centrifuged (3000 rcf, 5 min) and supernatants transferred and diluted 1:1 (supernatant: water) into a new 96 well plate, which was then sealed in preparation for LC/MS/MS analysis.
LC/MS/MS Bioanalysis of Samples from In Vivo Studies. In vivo samples were analyzed via electrospray ionization (ESI) on an AB Sciex QTrap 5500 (Foster City, Calif.) triple-quadrupole linear ion trap instrument that was coupled with Shimadzu LC-20AD pumps (Columbia, Md.) and a Leap Technologies CTC PAL auto-sampler (Carrboro, N.C.). Analytes were separated by gradient elution using a Fortis C18 2.1×50 mm, 3 μm column (Fortis Technologies Ltd, Cheshire, UK) at 40° C. HPLC mobile phase A was 0.1% formic acid in water (pH unadjusted), mobile phase B was 0.1% formic acid in acetonitrile (pH unadjusted). […] The total run time was 2.5 min and the HPLC flow rate was 0.5 mL/min. The source temperature was set at 500° C. and mass spectral analyses were performed using multiple reaction monitoring (MRM), with transitions specific for each compound utilizing a Turbo-Ionspray® source in positive ionization mode (5.0 kV spray voltage). The calibration curves were constructed, and linear response was obtained in the range of 0.5 to 5,000 ng/mL, by spiking known amounts of […] in blank brain homogenate or plasma. All data were analyzed using AB Sciex Analyst software v1.5.1. The final PK parameters were calculated by noncompartmental analysis using Phoenix (version 6.2) (Pharsight Inc., Mountain View, Calif.).

[2] = molecular target: T1, Serotonin 5-HT3 (Homo sapiens, UniProt P46098); test: Radioligand displacement (Ricerca); format: binding
T1 construct: Ricerca (contract panel)
T1 sequence (P46098 24-478): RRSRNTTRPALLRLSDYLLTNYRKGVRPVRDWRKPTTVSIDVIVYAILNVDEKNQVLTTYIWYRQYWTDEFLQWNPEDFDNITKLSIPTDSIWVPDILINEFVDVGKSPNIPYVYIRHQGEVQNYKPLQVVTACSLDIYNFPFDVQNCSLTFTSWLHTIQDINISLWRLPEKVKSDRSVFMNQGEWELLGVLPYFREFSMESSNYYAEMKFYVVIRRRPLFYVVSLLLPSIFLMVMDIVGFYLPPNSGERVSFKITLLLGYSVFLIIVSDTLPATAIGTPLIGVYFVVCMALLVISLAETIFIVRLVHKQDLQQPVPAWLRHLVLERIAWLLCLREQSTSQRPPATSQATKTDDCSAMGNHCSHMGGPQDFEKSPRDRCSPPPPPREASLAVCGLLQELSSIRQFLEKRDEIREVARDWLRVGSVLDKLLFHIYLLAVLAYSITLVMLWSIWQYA

Cc1cc(NC(=O)Nc2ccc(F)c(F)c2)n(-c2ccccc2)n1 [VU0456810, 1-(3,4-difluorophenyl)-3-(3-methyl-1-phenyl-1H-pyrazol-5-yl)urea]
Kp at 0.5 h ([1]; male, C57 BL6, brain/plasma, ip, 30 min after administration): 0.2
concentration at 30 min ([1]; male, C57 BL6, brain, 30 min after administration, read-out: Brain concentration): 500 nM
half-life ([1]; male, C57 BL6, plasma, ip): 20 min
concentration at 30 min ([1]; male, C57 BL6, plasma, 30 min after administration, read-out: Plasma concentration): 2300 nM
Plasma concentration ([1]; 30 min after administration): 2300 nM
concentration at 30 min ([1]; 30 min after administration, read-out: Brain concentration): 500 nM
inhibition at 10 µM [2]: 1%
